Source: paper PMC2816717, “Active Fragments from Pro- and Antiapoptotic BCL-2 Proteins Have Distinct Membrane Behavior Reflecting Their Functional Divergence” (PLoS ONE, 2010)

Tests used:
isolated mitochondria = assay: Cytochrome c release assay, source of mitochondria not stated; assay type: biochemical; settings: for effect on isolated mitochondria, in words: summary in Discussion
Procedure: (§1) Figure 7 Cytochrome c release assays. Peptides were incubated with isolated mitochondria for the indicated times (min) and the release of cytochrome c was monitored by Western blotting (IB). MitoHSP70 was used as an equal-loading control for the pellet fraction. Control lanes indicate that in the preparation the MOM is intact and cytochrome c is retained within the intermembrane space. A. Cytochrome c release assays for the first (BAX-α5S, BCLX-α5S, BID-α6) and second helices (BAX-α6, BCLX-α6, BID-α7) of the ‘pore domain’ of BAX, BCL-xL and BID using mitochondria isolated from HEK293T cells. B. Cytochrome c release assays for BAX-α5M and BAX-α5MS using mitochondria isolated from MEF and MEK BAX/BAK -/- double knock-out cells (MEF DKO). C. Cytochrome c release assays for the BH3 peptides.
Last, we proceeded to perform similar dose-response experiments by measuring cytochrome c release from isolated mitochondria with peptides derived from the BH3 domains of BAX, BID and BCL-xL. […] On the other hand, the BH3 peptides from BAX and BID triggered mitochondrial cytochrome c release, although with markedly less efficiency (starting at 25 µM after 15–30 min of peptide exposure) than BAX-α5, BAX-α6 or BID-α6.
(§2) Crude mitochondria were prepared from HEK 293T, mouse embryo fibroblast (MEF) or BAX/BAK double knockout MEF cells (MEF-DKO). In brief, cells were mechanically broken using a 2 ml glass/glass Dounce homogenizer (Kontes) (30 strokes). Homogenates were cleared at 1500 g and mitochondria were spun down at 10 000 g. For cytochrome c release assays, 30 µg of crude mitochondria were resuspended at 1 mg/ml in KCl buffer supplemented with succinate (5 mM) and EGTA (0.5 mM). Peptides (2.5, 10 or 25 µM) were added to the samples and incubations were carried out at 30°C under agitation (300 rpm). At the indicated time points, samples were centrifuged (5 min, 10 000 g, 4°C); supernatants and pellets were recovered and analyzed by immunoblotting for Cytochrome c and mitoHsp70.

[1] = test system: mitochondria isolated from HEK293T cells; assay: Cytochrome c release assay; assay type: biochemical
Procedure: Thus, we tested the ability of the different peptides to induce the release of mitochondrial proteins by incubating them with mitochondria isolated from HEK293T cells, and subsequently assaying the supernatant and pelleted fractions with antibodies for cytochrome c and mitoHSP70. […] On the other hand, incubation of mitochondria with 10 µM BID-α6 induced a slower release, with depletion of the mitochondrial pool of cytochrome c occurring only after 1 hour incubation.
as §1, §2

[2] = Langmuir monolayer penetration assay, lipid mixture not singled out (Figure 5); assay type: physicochemical; settings: πi 5 mN/m; for final increase of surface pressure πmax (insertion), in words: Figure 5A; for final increase of surface pressure πmax (insertion), in words / initial velocity of surface pressure increase Vi (affinity), in words: peptide 0.2 µM, Hepes pH 7.4, duplicate; for initial velocity of surface pressure increase Vi (affinity), in words: Figure 5B
From the text: (§3) For the biophysical characterization of membrane active protein fragments, we have used Langmuir monolayers as in vitro model of lipid membranes. These supramolecular lipid films formed at the air-water interface are attractive membrane models, widely used for studying peptide-lipid interactions, [56], [57]. We have investigated the binding of peptides derived from the central helices of BAX, BCL-xL and BID at physiological pH with model phospholipid monolayers of a composition that imitates mitochondrial membranes. For this purpose we selected fragments encompassing the sequences corresponding to the first or second α-helices of the core hairpins of BAX, BCL-xL and BID, as defined in the water-soluble protein structures, [17], [19]. Because the structures of those proteins in a membrane environment is currently unavailable, for the case of the first hairpin helix of BAX and BCL-xL (α5) we analyzed both a short version (labeled “S”), including only the reported α-helical residues, and a long version (labeled “L”) that extends a few residues beyond the α-helix stretch at both ends. Divergence of the BID sequence precluded unambiguous alignment with the other two proteins and a similar peptide design. Peptides corresponding to the BH3 domain of BAX, BCL-xL and BID were also included in the study. The sequence and some general properties of the peptides analyzed in this study are described in Table 1 and Figure 1). Lipid mixtures of POPC/DOPE (2∶1) and POPC/DOPE/CL (1∶1∶1) were chosen to mimic the MOM and the contact sites between inner and outer mitochondrial membrane (MIM/MOM), respectively. Penetration assays were carried out at constant area by spreading the lipids at the air-buffer interface, compressing the film at πi = […] and then injecting the peptides into the subphase at a concentration of 0.2 µM (see Material and Methods). Subsequent peptide binding results typically in an increase of surface pressure. Thus, the peptide-monolayer interaction can be characterized by measurable kinetic properties, such as the initial velocity of surface pressure increase (Vi), which informs about the affinity of the peptide for the lipid-water interface, and the final increase of surface pressure (πmax), which can be related to the insertion ability of the peptide into the monolayer.
Figure 5 Changes in surface pressure after peptide injection. Peptides were injected underneath POPC/DOPE or POPC/DOPE/CL monolayers at constant area. A. Final increase of surface pressure πmax (mN/m) obtained for the different peptides. The dashed line denotes the threshold (Δπ = 4.8 mN/m) for significant surface pressure variation as determined using BAX-α5S without lipids (see text). B. Initial velocity of surface pressure increase (Vi = Δπ/s).
(§4) Monolayer experiments were performed on a computer-controlled Langmuir film balance (KSV 2000, three multi-compartment system, KSV Instrument Ltd., Finland) working in a symmetrical compression mode and enclosed in an opaque cabinet. The rectangular trough (V = 85 mL ±1 mL, S = 119.25 cm^2) was made of Teflon and the mobile barriers were made in Delrin. The surface pressure, π defined as γ0 – γ, where γ0 is the surface tension of the pure aqueous subphase and γ the surface tension exerted by phospholipids at the subphase surface, was measured by the Wilhelmy's method using a platinum plate with an accuracy of ±0.05 mN/m. The trough was filled with Hepes buffer (pH 7.4), used as subphase and thermostated with a water circulating bath (Lauda E100, LAUDA France, SARL). In all experiments, the subphase temperature was maintained at a constant value of 22.5±0.5°C.
Phospholipid monolayers were formed by deposition of 14 µl of spreading solutions at a clean air/buffer interface by means of a micropipette to reach a final amount of 14 nmol of phospholipids. […]

[3] = Langmuir monolayer penetration assay at constant area; assay type: physicochemical; settings: control peptides, Figure S2 legend; unit not given (Δπ elsewhere in mN/m); conditions as Fig. 5: πi 5 mN/m, 0.2 µM
From the text: as §3, §4
Phospholipid monolayers were formed by deposition of 14 µl of spreading solutions at a clean air/buffer interface by means of a micropipette to reach a final amount of 14 nmol of phospholipids. After complete evaporation of the solvent (∼15 min), the monolayer was slowly compressed up to a defined lateral pressure (initial surface pressure πi) at a rate of 0.045 nm^2 molecule^−1 min^−1. The value of πi = 5 mN/m was chosen because it lies between the surface pressure set-off and surface pressures (e.g. 30 mN/m, which corresponds to a tightly packed film) where many peptides of the study will not insert. […]

[4] = test system: mitochondria isolated from BAX/BAK double knockout mouse embryonic fibroblasts (MEF DKO); assay: Cytochrome c release assay; assay type: biochemical; settings: Figure 7B
Procedure: as §1
Crude mitochondria were prepared from HEK 293T, mouse embryo fibroblast (MEF) or BAX/BAK double knockout MEF cells (MEF-DKO). In brief, cells were mechanically broken using a 2 ml glass/glass Dounce homogenizer (Kontes) (30 strokes). Homogenates were cleared at 1500 g and mitochondria were spun down at 10 000 g. […] At the indicated time points, samples were centrifuged (5 min, 10 000 g, 4°C); supernatants and pellets were recovered and analyzed by immunoblotting for Cytochrome c and mitoHsp70.

[5] = 10 µM peptide, 5 min incubation, 30°C, Western blot of supernatant and pellet
[6] = long versus short α5 peptide, 0.2 µM
[7] = only at the highest concentration assayed, 25 µM, 5 min

## AREVIPMAAVKQALREAGDEFELRYRRAF [BCLX-BH3, peptide corresponding to the BH3 domain of BCL-xL]
Isolated mitochondria; BH3 peptides, dose-response, Figure 7C
  cytochrome c release, in words: no cytochrome c release
Isolated mitochondria
  effect on isolated mitochondria, in words: lack of effect

## DGNFNWGRVVALFYFASKLVLKALSTKVPELIRT [BAX-α5L, long version of BAX helix α5, extended at both ends]
[1]; [5]
  cytochrome c release, in words: some residual cytochrome c was still present in the mitochondrial pellet
[2]
  final increase of surface pressure πmax (insertion), in words: much lower value
[2]; [6]
  surface pressure compared to BAX-α5S: about half

## EKEKTMLVLALLLAKKVASH [BID-α6, first helix (α6) of the central hairpin of BID]
[1]; 10 µM peptide, 30°C, Western blot
  incubation time at which the mitochondrial pool of cytochrome c is depleted: 1 h
[2]
  final increase of surface pressure πmax (insertion), in words: higher than the one of the BH3 peptides

## ELIRTIMGWTLDFLRERLLVWIQD [BAX-α6, second helix (α6) of the central hairpin of BAX]
[1]; [5]
  cytochrome c release, in words: complete depletion of all mitochondrial cytochrome c
[2]
  final increase of surface pressure πmax (insertion), in words: highest increases in surface pressure

## EQIMKTGAFLLQGFIQDRAGRW [BAX-α1, control peptide, first helix localized at the N-terminus of BAX, reference compound]
[3]
  Δπ in POPC/DOPE monolayers: 4
  Δπ in POPC/DOPE/CL monolayers: 3.4

## ESQEDIIRNIARHLAQVGDSMDRSIPPGL [BID-BH3, peptide corresponding to the BH3 domain of BID]
[2]
  initial velocity of surface pressure increase Vi (affinity), in words: strong
Isolated mitochondria; BH3 peptides, Figure 7C
  concentration at which cytochrome c release starts: 25 µM

## NWGRVVALFYFASKLVLKALSTKVPELIR [BAX-α5M]
[2]
  initial velocity of surface pressure increase Vi (affinity), in words: slightly smaller
[4]; mitochondria from MEF DKO
  cytochrome c release, in words: Cytochrome c release also occurred

## NWGVVKALFYFASVLRLKALSTKVPELIR [BAX-α5MS]
[2]
  final increase of surface pressure πmax (insertion), in words: reduced surface pressure compared to BAX-α5M
[4]; mitochondria from MEF and MEF DKO, relative to BAX-α5M
  kinetics of cytochrome c release, in words: increased lag time and a decreased rate of cytochrome c release

## RDGVNWGRIVAFFSFGGALSVESVDKEMQVLVSR [BCLX-α5L, long version of helix α5 of BCL-xL]
[1]; [7]
  cytochrome c release, in words: release of large amounts of cytochrome c
[2]
  final increase of surface pressure πmax (insertion), in words: higher than the one of the BH3 peptides
[2]; [6]
  increase in surface pressure compared to BCLX-α5S: ~5 fold

## SLLRDVFHTTVNFINQANLRTYVR [BID-α7, second helix (α7) of the central hairpin of BID]
[2]
  final increase of surface pressure πmax (insertion), in words: lowest increase of surface pressure
Isolated mitochondria
  effect on isolated mitochondria, in words: lack of effect

## TARWKKWGFQPRLKEQEGDVARDSQR [BCL2L10-LAAS, control peptide, connecting region between predicted α5-α6 helices of BCL2L10 (Long Amino Acid Stretch), reference compound]
[3]
  Δπ in POPC/DOPE monolayers: 3.4
  Δπ in POPC/DOPE/CL monolayers: 5.5

## VLVSRIAAWMATYLNDHLEPWIQE [BCLX-α6, second helix (α6) of the central hairpin of BCL-xL]
[1]; [7]
  cytochrome c release, in words: release of large amounts of cytochrome c
[2]
  final increase of surface pressure πmax (insertion), in words: higher than the one of the BH3 peptides
  initial velocity of surface pressure increase Vi (affinity), in words: strong

## VPQDASTKKLSECEKRIGNELDSNMELQR [BAX-BH3m, BAX BH3 mutant harboring substitutions (L63E/D68N)]
Isolated mitochondria; even at 100 µM (data not shown)
  cytochrome c release, in words: failed to induce cytochrome c release

## VPQDASTKKLSECLKRIGDELDSNMELQR [BAX-BH3, peptide corresponding to the BH3 domain of BAX]
Isolated mitochondria; BH3 peptides, Figure 7C
  concentration at which cytochrome c release starts: 25 µM

## WGRIVAFFSFGGALSVESVDK [BCLX-α5S, short peptide of helix α5 of BCL-xL]
[1]; all doses and times tested (2.5, 10 or 25 µM)
  cytochrome c release, in words: completely failed to release cytochrome c
[2]
  final increase of surface pressure πmax (insertion), in words: lowest increase of surface pressure
  initial velocity of surface pressure increase Vi (affinity), in words: strong
Isolated mitochondria
  effect on isolated mitochondria, in words: lack of effect
